Measured values: patent US20180110774A1, “COMPOSITIONS AND METHODS FOR TREATMENT OF PULMONARY HYPERTENSION” (STC.UNM, priority 2015, published 2018)

Tests used:
TH17 cell development [1] = conditions: Solt et al., 2011; cited from earlier work
RORγt = molecular target: T1, RORγt (Homo sapiens, UniProt P51449); conditions: selective inverse agonist; Solt et al., 2011, 2012; cited from earlier work
T1 sequence (P51449 1-497 isoform P51449-2): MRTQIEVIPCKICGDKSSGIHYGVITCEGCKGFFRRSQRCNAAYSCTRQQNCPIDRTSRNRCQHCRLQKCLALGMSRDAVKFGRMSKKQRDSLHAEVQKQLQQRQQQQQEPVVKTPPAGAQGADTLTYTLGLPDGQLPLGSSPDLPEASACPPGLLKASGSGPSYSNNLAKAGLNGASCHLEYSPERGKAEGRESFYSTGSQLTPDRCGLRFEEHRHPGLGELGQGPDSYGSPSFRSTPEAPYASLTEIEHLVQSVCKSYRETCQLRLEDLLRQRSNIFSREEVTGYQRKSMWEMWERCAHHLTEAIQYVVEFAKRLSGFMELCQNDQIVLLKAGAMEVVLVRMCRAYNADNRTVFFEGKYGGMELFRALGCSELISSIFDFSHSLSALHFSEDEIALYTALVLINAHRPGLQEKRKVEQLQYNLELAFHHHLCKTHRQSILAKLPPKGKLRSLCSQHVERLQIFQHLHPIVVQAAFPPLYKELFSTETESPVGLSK

[2] = test system: perivascular T cells (CD3+); assay: Perivascular CD3+ T cells in lung sections of mice exposed to chronic hypoxia (immunohistochemistry); type: in vivo; conditions: WT mice, CH for 2, 5 or 21 days; SR1001 0.625 mg/day for 25 g mouse s.c.; vs vehicle
Method: FIGS. 5A-D—Inhibition of TH17 cell development decreases CH-induced increases in perivascular T cells. Following treatment, lungs sections were stained with an anti-CD3 antibody to allow quantification of CD3+ T cells in the perivascular region of the lungs. The RORyt specific inhibitor, SR1001 was delivered daily by sub-cutaneous injection (0.625 mg/day for 25 g mouse) for the length of normoxic or CH exposure. (A) Perivascular CD3+ cells from mice exposed to 2 days, (B) 5 days or (C) 21 days of normoxia or CH. (D) Representative images of lung sections from mice exposed to CH with or without SR1001. Values are means±SEM, *p<0.05 vs. normoxia vehicle. n=3-4/group, 5-15 arteries<150 μm outer circumference, per mouse, analyzed by 2-way ANOVA followed by multiple comparisons Student-Newman-Keuls test.
Methods: Age- and sex-matched mice C57BL/6J wild-type (WT), RAG1 KO mice (lack mature T and B cells), IL-17-GFP mice (express EGFP in cells expressing IL-17A), were used in these studies (The Jackson Laboratory). Mice were exposed to chronic hypoxia (CH) for 2 to 21 days in a hypobaric chamber maintained at a barometric pressure of 380 mmHg. Normoxic animals were housed in identical cages in the same facility under normobaric conditions (PB=630 mmHg in Albuquerque, N. Mex.). […]

CH-induced PH = assay: Development of chronic hypoxia (CH)-induced pulmonary hypertension, 21 days; type: in vivo; conditions: mice, CH 21 days; SR1001 0.625 mg/day for 25 g mouse s.c. osmotic pump
Method: FIGS. 6A-D—Inhibition of TH17 cell polarization attenuates the development of CH-induced PH. SR1001 prepared in propylene glycol, 0.625 mg/day for 25 g mouse, was delivered sub-cutaneously via an implantable osmotic pump. Mice were exposed to normoxia or chronic hypoxia for 21 days, at which point (A) RVSP, (B) Fulton's index, (C) pulmonary arterial % wall thickness (<150 μm diameter) and (D) hematocrit were measured. Values are means±SEM; *p<0.05 vs. normoxia vehicle #p<0.05 vs. normoxic SR1001, n=4-5/group, analyzed by 2-way ANOVA followed by multiple comparisons Student-Newman-Keuls test.
(§1) Methods: Age- and sex-matched mice C57BL/6J wild-type (WT), RAG1 KO mice (lack mature T and B cells), IL-17-GFP mice (express EGFP in cells expressing IL-17A), were used in these studies (The Jackson Laboratory). Mice were exposed to chronic hypoxia (CH) for 2 to 21 days in a hypobaric chamber maintained at a barometric pressure of 380 mmHg. Normoxic animals were housed in identical cages in the same facility under normobaric conditions (PB=630 mmHg in Albuquerque, N. Mex.).
CD4+ T cells contribute to chronic hypoxia-induced pulmonary hypertension. To directly assess the contribution of T cells to CH-induced PH, recombination-activating gene 1 (RAG1) knockout mice, which lack the enzyme that plays a crucial role in the development of T and B cells were studied. Therefore, RAG1 KO mice lack mature T and B cells (Mombaerts et al., 1992). RAG1 KO mice were exposed to CH for 21 days or left in normoxia. […] RVSP was measured by direct cardiac puncture under isoflurane anesthesia (Bierer et al., 2011). The inventors also isolated CD4^+ or CD8+ cells from the lymph nodes of WT mice by negative selection using a magnetic bead cell isolation kit (Miltenyi Biotec). 2.5×10^5 cells were injected into RAG1 KO mice. After 2 weeks mice were exposed to CH or normoxia.

RORα = molecular target: T2, RORα (Homo sapiens, UniProt P35398); conditions: selective inverse agonist; Solt et al., 2011, 2012; cited from earlier work
T2 sequence (P35398 1-523): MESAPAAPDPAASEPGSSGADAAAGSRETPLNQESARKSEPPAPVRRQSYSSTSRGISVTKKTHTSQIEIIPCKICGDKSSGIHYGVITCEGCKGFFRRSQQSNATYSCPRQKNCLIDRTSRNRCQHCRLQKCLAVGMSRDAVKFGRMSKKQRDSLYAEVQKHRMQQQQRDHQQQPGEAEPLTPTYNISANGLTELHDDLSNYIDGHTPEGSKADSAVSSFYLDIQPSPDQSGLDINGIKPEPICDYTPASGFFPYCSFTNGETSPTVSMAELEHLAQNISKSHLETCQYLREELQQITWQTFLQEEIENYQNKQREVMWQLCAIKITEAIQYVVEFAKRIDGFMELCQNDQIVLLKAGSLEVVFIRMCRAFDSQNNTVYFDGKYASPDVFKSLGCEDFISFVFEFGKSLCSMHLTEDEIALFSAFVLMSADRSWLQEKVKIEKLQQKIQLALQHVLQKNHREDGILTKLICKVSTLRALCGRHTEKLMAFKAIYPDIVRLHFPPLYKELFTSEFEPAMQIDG

TH17 cell development [3] = conditions: Solt et al., 2011; cited from earlier work; remark: listed apart in the source
established PH due to CH = assay: Established CH-induced pulmonary hypertension (reversal: 3 weeks CH, then SR1001 for 2 more weeks in CH); type: in vivo; conditions: mice
Method: FIGS. 7A-D—TH17 cell inhibition attenuates increases in RVSP in established PH. Wild-type mice were exposed to CH for 21 days followed by administration of SR1001 (25 mg/kg/day s.c.) for an additional 14 days in CH. (A) RVSP. (B) Fulton's index. (C) Pulmonary arterial remodeling. (D) % Hematocrit. Values are means±SEM; *p<0.05 vs. vehicle, n=5-6/group, analyzed by unpaired T-test.
as §1
To follow up on the immunologic timing of events, studies were undertaken to understand whether PH due to CH might be reversed once already established by inhibiting TH17 cell development. Therefore, after 3 weeks of CH, osmotic pumps containing SR1001 (0.625 mg/day for 25 g mouse). were implanted sub-cutaneously and animals were immediately returned to CH for an additional 2 weeks (5 weeks of CH total).

[4] = 3 weeks CH then SR1001 for additional 2 weeks in CH

**Q.** What does the source list for CC(=O)Nc1nc(C)c(S(=O)(=O)Nc2ccc(C(O)(C(F)(F)F)C(F)(F)F)cc2)s1 [SR1001, N-(5-(N-(4-(1,1,1,3,3,3-hexafluoro-2-hydroxypropan-2-yl)phenyl)sulfamoyl)-4-methylthiazol-2-yl)acetamide]?
**A.** TH17 cell development in vitro (TH17 cell development [1]): inhibits TH17 cell development; activity of nuclear receptor RORγt (RORγt): inhibits the activity; perivascular T cells (CD3+) in the pulmonary arterial perivascular region [2]: significant reduction; CH-induced increase in RV remodeling (Fulton's index) (CH-induced PH): attenuated; CH-induced increase in RVSP (CH-induced PH): attenuated; CH-induced increase in pulmonary arterial remodeling (% wall thickness) (CH-induced PH): attenuated; activity of nuclear receptor RORα (RORα): inhibits the activity; TH17 cell development in vivo (TH17 cell development [3]): inhibits TH17 cell development; already elevated RVSP (established PH due to CH; 3 weeks CH then SR1001 (0.625 mg/day for 25 g mouse, s.c. osmotic pump) for additional 2 weeks in CH): significantly decreased; perivascular T cells in the lungs (established PH due to CH; [4]): significant decrease; pulmonary arterial remodeling (established PH due to CH; [4]): no effect; RV remodeling (Fulton's index) (established PH due to CH; 3 weeks CH then SR1001 for additional 2 weeks in CH, p<0.0583): strong trend for a decrease
